Measurements: patent publication US5182290A (Neurogen Corporation, priority 1991, dated 1993)
Entries after “also recorded” stand apart in the source; their conditions may differ.

Key:
[1] = tested on: benzodiazepine binding site; details: result in words; Tallman et al., 1978; cited from earlier work
GABAa receptor = assay: Inhibition of 3H-RO15-1788 (3H-Flumazenil) binding to rat cortical tissue (GABAa receptor assay)
Description: Assays are carried out as described in Thomas and Tallman (J. Bio. Chem. 156: 9838-9842, J. Neurosci. 3:433-440, 1983). Rat cortical tissue is dissected and homogenized in 25 volumes (w/v) of 0.05M Tris HCl buffer (pH 7.4 at 4° C.). The tissue homogenate is centrifuged in the cold (4° C.) at 20,000×g for 20 minutes. The supernatant is decanted and the pellet is rehomogenized in the same volume of buffer and again centrifuged at 20,000× g. The supernatant is decanted and the pellet is frozen at -20° C. overnight. The pellet is then thawed and rehomogenized in 25 volume (original wt/vol) of buffer and the procedure is carried out twice. The pellet is finally resuspended in 50 volumes (w/vol of 0.05M Tris HCl buffer (pH 7.4 at […]).
Incubations contain […] of radioligand 0.5 nM (^3 H-RO15-1788[^3 H-Flumazenil] specific activity 80 Ci/mmol), drug or blocker and buffer to a total volume of […]. Incubations are carried for 30 min at 4° C. then are rapidly filtered through GFB filters to separate free and bound ligand. Filters are washed twice with fresh 0.05M Tris HCl buffer (pH 7.4 at 4° C.) and counted in a liquid scintillation counter. 1.0 mM diazepam is added to some tubes to determine nonspecific binding. Data are collected in triplicate determinations, averaged and % inhibition of total specific binding is calculated. Total Specific Binding=Total-Nonspecific. In some cases, the amounts of unlabeled drugs is varied and total displacement curves of binding are carried out. Data are converted to a form for the calculation of IC50 and Hill Coefficient (nH).

[2] = 3H-RO15-1788 0.5 nM, rat cortical tissue, 30 min at 4° C.

Compound	Blockade of enhancement of benzodiazepine binding by GABA agonists [1]	IC50 (GABAa receptor; [2]) [µM]	other results
CN1CCc2cc3c(cc2[C@H]1[C@@H]1OC(=O)c2c1ccc1c2OCO1)OCO3 [(+) bicuculline]	blocked		
CN1CCc2cc3c(cc2[C@@H]1[C@H]1OC(=O)c2c1ccc1c2OCO1)OCO3 [(-) bicuculline]	much less active		
COc1cccc(-c2nc3c(=O)[nH]c4ccccc4c3o2)c1 [Compound 1, 2-(3-Methoxyphenyl)-oxazolo[4,5-c]quinolin-4(5H)-one]		0.6	
Cn1c(=O)c2nc(-c3ccccc3)oc2c2ccccc21 [5-methyl-2-phenyl-oxazolo[4,5-c]quinolin-4(5H)-one]			IC50 (GABAa receptor; prior art compound, assay described above, unit inferred): ~50 µM; activity in the assay (GABAa receptor; prior art compound, result in words): no activity; also recorded: inactive
O=c1[nH]c2ccccc2c2oc(-c3ccccc3)nc12 [Compound 2, 2-Phenyl-oxazolo[4,5-c]quinolin-4(5H)-one]		0.095	
COc1ccc(-c2nc3c(=O)[nH]c4ccccc4c3o2)cc1 [Compound 4, 2-(4-Methoxyphenyl)-oxazolo[4,5-c]quinolin-4(5H)-one]		0.125	
